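1) Cells in 96-well plates. 2) Compound, 48 h, 5 concentrations. 3) Linear interpolation between surrounding doses. 4) Unreached endpoint = highest concentration. GI50 marks 50% less growth.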 The source made the active and inactive calls. No stated cut-off is given here; in the data, active = GI50 up to about 1.1 µM and inactive = higher.
Experiments:
Experiment in all cases: inhibition of tumour cell growth, NCI panel, 48 h
[1] = tested on: U-251
[2] = tested on: HCC 2998
[3] = tested on: EKVX
[4] = tested on: CCRF-CEM
[5] = tested on: NCI-H522
[6] = tested on: HOP-62
[7] = tested on: UACC-257
[8] = tested on: SK-MEL-28
[9] = tested on: SK-MEL-2
[10] = tested on: K562
[11] = tested on: HCT-15
[12] = tested on: SNB-75
[13] = tested on: HOP-92
[14] = tested on: SF-539
[15] = tested on: SF-295
[16] = tested on: SK-MEL-5
[17] = tested on: OVCAR-5
[18] = tested on: 786-0
[19] = tested on: RXF 393

With `NC(=O)c1csc(C2OC(COP(=O)(O)CP(=O)(O)OCC3OC(n4cnc5c(N)ncnc54)C(O)C3O)C(O)C2O)n1` (centres undefined) the GI50 [1] was > 100 µM (inactive), the GI50 [2] was > 100 µM (inactive) and the GI50 [3] was > 100 µM (inactive). The GI50 [4] was > 100 µM (inactive), the GI50 [5] was 68.1 µM (inactive) and the GI50 [6] was > 100 µM (inactive). For the same compound, the GI50 [7] was > 100 µM (inactive), the GI50 [8] was > 100 µM (inactive) and the GI50 [9] was > 100 µM (inactive). For the same compound, the GI50 [10] was 55.3 µM (inactive), the GI50 [11] was 78.3 µM and the GI50 [12] was > 100 µM (inactive). For the same compound, the GI50 [13] was > 100 µM (inactive), the GI50 [14] was > 100 µM (inactive) and the GI50 [15] was 53.7 µM (inactive). The GI50 [16] was > 100 µM (inactive), the GI50 [17] was > 100 µM (inactive) and the GI50 [18] was > 100 µM (inactive).
In the case of `OCCN(CCO)c1cccc(N(CCO)CCO)n1`, the GI50 [1] is reported as > 100 µM (inactive), the GI50 [2] is reported as > 10 µM (inactive) and the GI50 [3] is reported as > 100 µM (inactive). For the same compound, the GI50 [4] was > 100 µM (inactive), the GI50 [19] was > 100 µM (inactive) and the GI50 [5] was > 100 µM (inactive). The GI50 [6] was > 100 µM (inactive), the GI50 [7] was > 100 µM (inactive) and the GI50 [8] was > 100 µM (inactive). The GI50 [9] was > 100 µM (inactive), the GI50 [10] was > 100 µM (inactive) and the GI50 [11] was greater than 100 µM. The GI50 [12] was > 100 µM (inactive), the GI50 [13] was > 100 µM (inactive) and the GI50 [15] was > 100 µM (inactive). The GI50 [16] was > 100 µM (inactive) and the GI50 [18] was > 100 µM (inactive).
In the case of `CCCCN(CCCC)CC(C(=O)Nc1ccccc1)/C(C)=N\NC(=O)c1ccncc1` (centres undefined), the GI50 [1] is reported as > 100 µM (inactive), the GI50 [2] is reported as > 100 µM (inactive) and the GI50 [19] is reported as > 100 µM (inactive). For the same compound, the GI50 [5] was > 100 µM (inactive), the GI50 [6] was > 100 µM (inactive) and the GI50 [7] was > 100 µM (inactive). The GI50 [8] was > 100 µM (inactive), the GI50 [10] was > 100 µM (inactive) and the GI50 [11] was greater than 100 µM. The GI50 [12] was 16.9 µM (inactive), the GI50 [13] was > 100 µM (inactive) and the GI50 [14] was > 100 µM (inactive). The GI50 [15] was > 100 µM (inactive), the GI50 [16] was > 100 µM (inactive) and the GI50 [17] was > 100 µM (inactive). The GI50 [18] was > 100 µM (inactive).
`CC(=O)N/C(=C\c1ccc(Cc2nc3c([nH]2)C(=O)c2ccccc2C3=O)cc1)c1nc2c([nH]1)C(=O)c1ccccc1C2=O` was tested, and the GI50 [1] was 78.5 µM (inactive), the GI50 [2] was > 100 µM (inactive) and the GI50 [3] was > 100 µM (inactive). For the same compound, the GI50 [4] was > 100 µM (inactive), the GI50 [19] was > 100 µM (inactive) and the GI50 [5] was > 100 µM (inactive). The GI50 [6] was > 100 µM (inactive), the GI50 [7] was > 100 µM (inactive) and the GI50 [8] was > 100 µM (inactive). The GI50 [9] was > 100 µM (inactive), the GI50 [10] was > 100 µM (inactive) and the GI50 [12] was 86.3 µM (inactive). The GI50 [13] was > 100 µM (inactive), the GI50 [14] was > 100 µM (inactive) and the GI50 [15] was > 100 µM (inactive). For the same compound, the GI50 [16] was > 100 µM (inactive), the GI50 [17] was > 100 µM (inactive) and the GI50 [18] was > 100 µM (inactive).
`CCn1c(=O)nc2n(-c3ccccc3)c3ccccc3nc-2c1=O` was tested, and the GI50 [1] was 17.5 µM (inactive), the GI50 [2] was 21 µM (inactive) and the GI50 [3] was 43.7 µM (inactive). The GI50 [4] was 21.1 µM (inactive), the GI50 [5] was 26.9 µM (inactive) and the GI50 [6] was 31.7 µM (inactive). For the same compound, the GI50 [7] was 16.7 µM (inactive), the GI50 [8] was 32.8 µM (inactive) and the GI50 [9] was 25 µM (inactive). For the same compound, the GI50 [10] was 17.9 µM (inactive), the GI50 [11] was 15.7 µM and the GI50 [12] was 82.8 µM (inactive). The GI50 [13] was 18.3 µM (inactive), the GI50 [14] was 14.2 µM (inactive) and the GI50 [15] was 24.2 µM (inactive). For the same compound, the GI50 [16] was 10.4 µM (inactive), the GI50 [17] was 29.3 µM (inactive) and the GI50 [18] was 27.9 µM (inactive).
`CCOC(=O)c1cc2c(cn1)[nH]c1cccc(N)c12` was tested, and the GI50 [1] was > 100 µM (inactive), the GI50 [2] was > 100 µM (inactive) and the GI50 [4] was > 100 µM (inactive). The GI50 [19] was > 100 µM (inactive), the GI50 [5] was > 100 µM (inactive) and the GI50 [6] was > 100 µM (inactive). The GI50 [7] was > 100 µM (inactive), the GI50 [8] was > 100 µM (inactive) and the GI50 [10] was > 100 µM (inactive). For the same compound, the GI50 [12] was > 100 µM (inactive), the GI50 [13] was > 100 µM (inactive) and the GI50 [14] was > 100 µM (inactive). For the same compound, the GI50 [15] was > 100 µM (inactive), the GI50 [16] was > 100 µM (inactive) and the GI50 [17] was > 100 µM (inactive). The GI50 [18] was > 100 µM (inactive).
For `Cn1ncc2cc3c(Nc4ccc(Cl)cc4)cccc3nc21`, the GI50 [2] was 21 µM (inactive), the GI50 [3] was 18.1 µM (inactive) and the GI50 [4] was 15.1 µM (inactive). The GI50 [19] was 6.87 µM (inactive), the GI50 [5] was 1.75 µM (inactive) and the GI50 [6] was 15 µM (inactive). The GI50 [7] was 18.9 µM (inactive), the GI50 [8] was 15.1 µM (inactive) and the GI50 [9] was 22.6 µM (inactive). The GI50 [10] was 20 µM (inactive), the GI50 [11] was 14.1 µM and the GI50 [12] was 19.4 µM (inactive). For the same compound, the GI50 [13] was 6.67 µM (inactive), the GI50 [15] was 14.2 µM (inactive) and the GI50 [16] was 13.1 µM (inactive). The GI50 [17] was > 10 µM (inactive) and the GI50 [18] was 21.6 µM (inactive).
For `CC(C)(C)C(=O)Cc1cc2c(cc1C(=O)O)S(=O)(=O)NC(C(C)(C)C)=C2`, the GI50 [1] was > 100 µM (inactive), the GI50 [3] was > 100 µM (inactive) and the GI50 [4] was > 100 µM (inactive). For the same compound, the GI50 [5] was > 100 µM (inactive), the GI50 [6] was > 100 µM (inactive) and the GI50 [7] was > 100 µM (inactive). The GI50 [8] was > 100 µM (inactive), the GI50 [9] was > 100 µM (inactive) and the GI50 [10] was > 100 µM (inactive). The GI50 [12] was > 100 µM (inactive), the GI50 [13] was > 100 µM (inactive) and the GI50 [15] was > 100 µM (inactive). The GI50 [17] was > 100 µM (inactive) and the GI50 [18] was > 100 µM (inactive).
